Measurements: ChEMBL document CHEMBL1201862, “PubChem BioAssay data set” (2004)
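Where inhibition never reached the appropriate level, the endpoint shown equals the highest concentration tested. Otherwise, values were interpolated linearly from a five-concentration, 48-hour dose response in 96-well plates. GI50 = concentration required for 50% inhibition of growth.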 The source made the active and inactive calls. Cut-off read from the data, not from the text of the source: active = GI50 up to about 1.1 µM and inactive = higher.

What was measured:
Assay in all cases: DTP human tumour cell line panel, 48 h
SNB-78 = test system: SNB-78
ACHN = test system: ACHN
RXF 393 = test system: RXF 393
K562 = test system: K562
RPMI-8226 = test system: RPMI-8226
SNB-75 = test system: SNB-75
SK-MEL-28 = test system: SK-MEL-28
NCI-H23 = test system: NCI-H23
HOP-18 = test system: HOP-18
NCI-H522 = test system: NCI-H522
SN12C = test system: SN12C
SF-539 = test system: SF-539
786-0 = test system: 786-0
XF498 = test system: XF498
EKVX = test system: EKVX
MOLT-4 = test system: MOLT-4
SF-268 = test system: SF-268
UACC-257 = test system: UACC-257
DMS-273 = test system: DMS-273
NCI-H226 = test system: NCI-H226
NCI-H460 = test system: NCI-H460
HCC 2998 = test system: HCC 2998
SK-MEL-2 = test system: SK-MEL-2
OVCAR-3 = test system: OVCAR-3
LXFL 529 = test system: LXFL 529
TK-10 = test system: TK-10
UO-31 = test system: UO-31
SK-MEL-5 = test system: SK-MEL-5
OVCAR-4 = test system: OVCAR-4
A498 = test system: A498
SF-295 = test system: SF-295
HT-29 = test system: HT-29
M19-MEL = test system: M19-MEL
DMS-114 = test system: DMS-114
HCT-116 = test system: HCT-116
A549 = test system: A549
KM-20L2 = test system: KM-20L2
Malme-3M = test system: Malme-3M
SK-OV-3 = test system: SK-OV-3
SNB-19 = test system: SNB-19
SR = test system: SR
HCT-15 = test system: HCT-15
CCRF-CEM = test system: CCRF-CEM
LOX IMVI = test system: LOX IMVI
IGROV-1 = test system: IGROV-1
HOP-92 = test system: HOP-92
DLD-1 = test system: DLD-1
CAKI-1 = test system: CAKI-1
OVCAR-5 = test system: OVCAR-5
U-251 = test system: U-251
HOP-62 = test system: HOP-62
UACC-62 = test system: UACC-62
HL-60 = test system: HL-60
M14 = test system: M14
COLO 205 = test system: COLO 205
OVCAR-8 = test system: OVCAR-8
KM12 = test system: KM12
SW-620 = test system: SW-620

Compound: O=C(Cc1ccccc1)NN1C(=O)C(Cl)C1c1ccccc1Cl (stereo unspecified)
- GI50 (SNB-78): 83.6 µM (inactive)
- GI50 (ACHN): > 100 µM (inactive)
- GI50 (RXF 393): 48.8 µM (inactive)
- GI50 (K562): 33.7 µM (inactive)
- GI50 (RPMI-8226): 19.5 µM (inactive)
- GI50 (SNB-75): 51.3 µM (inactive)
- GI50 (SK-MEL-28): > 100 µM (inactive)
- GI50 (NCI-H23): 64.1 µM (inactive)
- GI50 (HOP-18): > 100 µM (inactive)
- GI50 (NCI-H522): 13.2 µM (inactive)
- GI50 (SN12C): > 75.9 µM (inactive)
- GI50 (SF-539): > 100 µM (inactive)
- GI50 (786-0): 71.8 µM (inactive)
- GI50 (XF498): > 75 µM (inactive)
- GI50 (EKVX): > 100 µM (inactive)
- GI50 (MOLT-4): 26.2 µM (inactive)
- GI50 (SF-268): > 70.1 µM (inactive)
- GI50 (UACC-257): > 70.6 µM (inactive)
- GI50 (DMS-273): 72.8 µM (inactive)
- GI50 (NCI-H226): > 100 µM (inactive)
- GI50 (NCI-H460): 76 µM (inactive)
- GI50 (HCC 2998): > 100 µM (inactive)
- GI50 (SK-MEL-2): > 100 µM (inactive)
- GI50 (OVCAR-3): > 62.7 µM (inactive)
- GI50 (LXFL 529): 33.6 µM (inactive)
- GI50 (TK-10): > 100 µM (inactive)
- GI50 (UO-31): > 100 µM (inactive)
- GI50 (SK-MEL-5): > 72.6 µM (inactive)
- GI50 (OVCAR-4): > 100 µM (inactive)
- GI50 (A498): > 100 µM (inactive)
- GI50 (SF-295): 99.8 µM (inactive)
- GI50 (HT-29): > 94.2 µM (inactive)
- GI50 (M19-MEL): > 100 µM (inactive)
- GI50 (DMS-114): 32.6 µM (inactive)
- GI50 (HCT-116): 59.4 µM (inactive)
- GI50 (A549): > 100 µM (inactive)
- GI50 (KM-20L2): 98.6 µM (inactive)
- GI50 (Malme-3M): > 100 µM (inactive)
- GI50 (SK-OV-3): > 100 µM (inactive)
- GI50 (SNB-19): > 100 µM (inactive)
- GI50 (SR): 23.2 µM (inactive)
- GI50 (HCT-15): > 92.9 µM
- GI50 (CCRF-CEM): 14.1 µM (inactive)
- GI50 (LOX IMVI): 24.3 µM (inactive)
- GI50 (IGROV-1): 39 µM (inactive)
- GI50 (HOP-92): > 100 µM (inactive)
- GI50 (DLD-1): > 69.2 µM (inactive)
- GI50 (CAKI-1): > 60.3 µM (inactive)
- GI50 (OVCAR-5): > 100 µM (inactive)
- GI50 (U-251): 44.1 µM (inactive)
- GI50 (HOP-62): > 100 µM (inactive)
- GI50 (UACC-62): 68.5 µM (inactive)
- GI50 (HL-60): 30.1 µM (inactive)
- GI50 (M14): > 100 µM (inactive)
- GI50 (COLO 205): > 100 µM (inactive)
- GI50 (OVCAR-8): > 74 µM (inactive)
- GI50 (KM12): > 79.3 µM (inactive)
- GI50 (SW-620): 34.4 µM (inactive)

Compound: COc1cc(OC)cc(-c2cc(O)c3cc4c(cc3n2)OCO4)c1
- GI50 (SNB-78): 0.295 µM (active)
- GI50 (ACHN): 0.321 µM (active)
- GI50 (K562): 0.15 µM (active)
- GI50 (RPMI-8226): 0.389 µM (active)
- GI50 (SNB-75): 2.32 µM (inactive)
- GI50 (SK-MEL-28): 0.194 µM (active)
- GI50 (NCI-H23): 0.351 µM (active)
- GI50 (HOP-18): 16.3 µM (inactive)
- GI50 (NCI-H522): 0.139 µM (active)
- GI50 (SN12C): 0.367 µM (active)
- GI50 (SF-539): 0.173 µM (active)
- GI50 (786-0): 0.348 µM (active)
- GI50 (XF498): 0.152 µM (active)
- GI50 (EKVX): 12.6 µM (inactive)
- GI50 (MOLT-4): 0.364 µM (active)
- GI50 (SF-268): 0.54 µM (active)
- GI50 (UACC-257): 1.96 µM (inactive)
- GI50 (DMS-273): 0.306 µM (active)
- GI50 (NCI-H226): 0.251 µM (active)
- GI50 (NCI-H460): 0.26 µM (active)
- GI50 (HCC 2998): 0.225 µM (active)
- GI50 (SK-MEL-2): 0.165 µM (active)
- GI50 (OVCAR-3): 0.136 µM (active)
- GI50 (LXFL 529): 0.211 µM (active)
- GI50 (TK-10): 1.74 µM (inactive)
- GI50 (UO-31): 1.22 µM (inactive)
- GI50 (SK-MEL-5): 0.163 µM (active)
- GI50 (OVCAR-4): 17.1 µM (inactive)
- GI50 (SF-295): 0.2 µM (active)
- GI50 (HT-29): 0.295 µM (active)
- GI50 (M19-MEL): 0.321 µM (active)
- GI50 (DMS-114): 0.218 µM (active)
- GI50 (HCT-116): 0.169 µM (active)
- GI50 (A549): 0.428 µM (active)
- GI50 (KM-20L2): 0.217 µM (active)
- GI50 (Malme-3M): 0.426 µM (active)
- GI50 (SK-OV-3): 0.27 µM (active)
- GI50 (SNB-19): 0.8 µM (active)
- GI50 (SR): 0.199 µM (active)
- GI50 (HCT-15): 0.263 µM
- GI50 (CCRF-CEM): 0.206 µM (active)
- GI50 (LOX IMVI): 0.367 µM (active)
- GI50 (IGROV-1): 0.389 µM (active)
- GI50 (HOP-92): 0.314 µM (active)
- GI50 (DLD-1): 0.311 µM (active)
- GI50 (CAKI-1): 0.309 µM (active)
- GI50 (OVCAR-5): 4.35 µM (inactive)
- GI50 (U-251): 0.221 µM (active)
- GI50 (HOP-62): 0.486 µM (active)
- GI50 (UACC-62): 0.209 µM (active)
- GI50 (HL-60): 0.162 µM (active)
- GI50 (M14): 0.239 µM (active)
- GI50 (COLO 205): 0.192 µM (active)
- GI50 (OVCAR-8): 0.395 µM (active)
- GI50 (KM12): 0.17 µM (active)
- GI50 (SW-620): 0.203 µM (active)

Compound: Cc1ccc(C)c(C(=O)CC2OC(O)C(Cl)C2Cl)c1 (stereo unspecified)
- GI50 (SNB-78): 60.1 µM (inactive)
- GI50 (ACHN): 42.5 µM (inactive)
- GI50 (RXF 393): 26.2 µM (inactive)
- GI50 (K562): 32.5 µM (inactive)
- GI50 (RPMI-8226): 12.4 µM (inactive)
- GI50 (SNB-75): 52 µM (inactive)
- GI50 (SK-MEL-28): 39.5 µM (inactive)
- GI50 (NCI-H23): > 100 µM (inactive)
- GI50 (HOP-18): > 100 µM (inactive)
- GI50 (NCI-H522): 15.6 µM (inactive)
- GI50 (SN12C): 5.7 µM (inactive)
- GI50 (SF-539): 24 µM (inactive)
- GI50 (XF498): > 100 µM (inactive)
- GI50 (EKVX): > 100 µM (inactive)
- GI50 (MOLT-4): 8.65 µM (inactive)
- GI50 (SF-268): > 100 µM (inactive)
- GI50 (UACC-257): > 100 µM (inactive)
- GI50 (DMS-273): 63.1 µM (inactive)
- GI50 (NCI-H226): > 100 µM (inactive)
- GI50 (NCI-H460): > 100 µM (inactive)
- GI50 (HCC 2998): > 100 µM (inactive)
- GI50 (SK-MEL-2): 84.5 µM (inactive)
- GI50 (OVCAR-3): 36.6 µM (inactive)
- GI50 (LXFL 529): 17.4 µM (inactive)
- GI50 (TK-10): > 100 µM (inactive)
- GI50 (UO-31): > 100 µM (inactive)
- GI50 (SK-MEL-5): > 100 µM (inactive)
- GI50 (OVCAR-4): > 100 µM (inactive)
- GI50 (A498): > 100 µM (inactive)
- GI50 (SF-295): > 100 µM (inactive)
- GI50 (HT-29): > 100 µM (inactive)
- GI50 (M19-MEL): 72.3 µM (inactive)
- GI50 (DMS-114): > 100 µM (inactive)
- GI50 (HCT-116): 29.7 µM (inactive)
- GI50 (A549): > 100 µM (inactive)
- GI50 (KM-20L2): > 100 µM (inactive)
- GI50 (Malme-3M): 67.5 µM (inactive)
- GI50 (SK-OV-3): > 100 µM (inactive)
- GI50 (SNB-19): > 100 µM (inactive)
- GI50 (SR): 44 µM (inactive)
- GI50 (HCT-15): 34.8 µM
- GI50 (CCRF-CEM): 41.1 µM (inactive)
- GI50 (LOX IMVI): 18.9 µM (inactive)
- GI50 (IGROV-1): > 100 µM (inactive)
- GI50 (HOP-92): 30.6 µM (inactive)
- GI50 (DLD-1): 17.1 µM (inactive)
- GI50 (CAKI-1): 30.4 µM (inactive)
- GI50 (OVCAR-5): > 100 µM (inactive)
- GI50 (U-251): > 100 µM (inactive)
- GI50 (HOP-62): > 100 µM (inactive)
- GI50 (UACC-62): 57.3 µM (inactive)
- GI50 (HL-60): 20.6 µM (inactive)
- GI50 (M14): > 100 µM (inactive)
- GI50 (COLO 205): > 100 µM (inactive)
- GI50 (OVCAR-8): 18.3 µM (inactive)
- GI50 (KM12): > 100 µM (inactive)
- GI50 (SW-620): 18.7 µM (inactive)
